The target of test [1] is T1, rat GPR14 (U-II receptor) (Rattus norvegicus, UniProt P49684).
T1 construct: expressed in transfected cells
T1 sequence (P49684 1-386): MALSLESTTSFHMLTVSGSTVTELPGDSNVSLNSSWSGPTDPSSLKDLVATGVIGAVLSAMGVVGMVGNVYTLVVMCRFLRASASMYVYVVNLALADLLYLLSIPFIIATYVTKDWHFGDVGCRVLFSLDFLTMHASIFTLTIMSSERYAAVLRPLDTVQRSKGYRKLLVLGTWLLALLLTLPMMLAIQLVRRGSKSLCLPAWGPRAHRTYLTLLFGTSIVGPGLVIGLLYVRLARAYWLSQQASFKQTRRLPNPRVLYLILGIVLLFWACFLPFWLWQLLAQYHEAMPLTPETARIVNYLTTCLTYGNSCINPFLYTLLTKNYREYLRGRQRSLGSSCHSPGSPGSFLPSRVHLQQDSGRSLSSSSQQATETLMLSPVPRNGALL
The test can be described thus: Rat UII Calcium Mobilization FLIPR Assay. It is filed as cell-based. Particulars: antagonist activity after 5 min incubation vs agonist (Ac)-CFWK(2-NaI)C-NH2 at 1 nM; CHO cells transfected with rat GPR14. From the text: A calcium mobilization assay based on a Fluorescence Imaging Plate
Res. Commun. 1995, 209, 752-759. A. Marchese, M. Heiber, T. Nguyen, H. H. Heng, V. R. Saldivia, R. Cheng, P. M. Murphy, L. C. Tsui, X. Shi, P. Gregor, Genomics 1995, 29, 335-344.).
To derive these cells, the complete coding sequence of rat U-II (Genbank Accession No. U32673) was amplified by nested PCR from rat heart marathon-Ready cDNA. […] The PCR products were cloned into pcDNA3 (Invitrogen) digested with EcoR I and Xba I. Clones containing rat U-II receptor were verified by complete sequencing of the U-II receptor insert to ensure a lack of PCR-introduced errors. The constructed vector was transfected into CHO cells by using lipofectamine (GIBCO BRL). CHO cells with high expression of rat U-II receptor were selected and established as stable cell lines by using G418. CHO cells were seeded at 25,000 cells per well into 96-well, black-wall, clear-bottom microtiter plates 24 h before assay. Cells in culture media (DMEM/F12 containing 15 mM HEPES, L-glutamine, pyridoxine hydrochloride; 10% fetal bovine serum; 1 mg/mL G418 sulfate; antibiotic-antimycotic; pH 7.4) were loaded with proprietary dye, from the FLIPR Calcium Assay Kit (Molecular Devices), prepared in assay buffer (Hanks Balanced Salts Solution, 20 mM HEPES, 0.1% BSA, 2.5 mM probenecid, pH 7.4), and incubated for 1 h at 37° C. […]
On the technique in general: Calcium assays in cells follow changes in intracellular calcium, usually with a dye or a luminescent sensor.

In test [2] the target is T2, UT receptors in Human Skeletal Muscle Myoblasts (HSMM) (Homo sapiens, UniProt Q9UKP6).
T2 sequence (Q9UKP6 1-389): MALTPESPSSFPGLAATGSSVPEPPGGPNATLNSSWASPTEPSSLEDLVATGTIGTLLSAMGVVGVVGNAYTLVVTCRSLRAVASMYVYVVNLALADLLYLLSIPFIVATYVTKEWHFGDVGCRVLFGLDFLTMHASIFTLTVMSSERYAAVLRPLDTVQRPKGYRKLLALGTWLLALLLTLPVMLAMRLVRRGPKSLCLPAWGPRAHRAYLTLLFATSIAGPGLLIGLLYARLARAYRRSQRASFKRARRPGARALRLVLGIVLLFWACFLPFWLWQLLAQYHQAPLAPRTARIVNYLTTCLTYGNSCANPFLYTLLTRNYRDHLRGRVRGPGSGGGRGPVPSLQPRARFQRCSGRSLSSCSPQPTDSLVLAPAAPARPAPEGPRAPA
Particulars: read-out: Human UII Average Binding Ki; 0.150 nM (125I)-U-II, intact HSMM, 3 h, 25° C.

Test [3] concerns the target T3, Human UII (6D9 human rhabdomyosarcoma cells) (Homo sapiens, UniProt Q9UKP6).
T3 construct: 6D9: isolated by dilution subcloning of RMS13 cells; host or cells: 6D9 human rhabdomyosarcoma cells (subclone of RMS13)
T3 sequence (Q9UKP6 1-389): T2 sequence (Q9UKP6 1-389)
The test can be described thus: Human UII Calcium Mobilization Assay. It is filed as cell-based. Particulars: FLIPR TETRA, column head prints Ki (μM), read-out: Human UII Ca+ Mobilization Average IC50. How it is done: 25 μL of dye solution was added to the wells such that the final liquid volume before agonist/antagonist treatment was 50 μL for all assays. The cell plates were incubated at 37° C. for 45 minutes and the fluorescence intensity was measured on a Fluorometric Imaging Plate Reader (FLIPR^TETRA, Molecular Devices, Sunnyvale, Calif.).
Antagonist and agonist U-II were added at room temperature on the FLIPR^TETRA, and the fluorescence intensity before and after addition was measured over a period of 4 minutes. The dye incubation time and temperature as well as instrument setting was adjusted so the fluorescence intensity could be compared between plates on the same day. EC50 and IC50 were analyzed using GraphPad Prism 4 software (GraphPad Software Inc., San Diego, Calif.).
For assays, U-II agonist, U-II antagonist and urantide were diluted with HBSS/HEPES containing 0.01% FBS.
Test compounds were dissolved in DMSO at 10 mM concentration. The serial dilutions were carried out in HBSS/HEPES. The highest final DMSO concentration was at 0.1%.

In test [4] the target is T4, rU-II (Rattus norvegicus, UniProt P49684).
T4 sequence (P49684 1-386): T1 sequence (P49684 1-386)
Particulars: agonist cyclic peptide used in the assay; cited from earlier work.

In test [5] the target is T1, rat GPR14 (U-II receptor). Particulars: agonist cyclic peptide used in the assay; read-out: FLIPR EC50; cited from earlier work.
Test [6] concerns isolated arterial rings of rats and humans. Particulars: read-out: EC50 (concentration-dependent contraction); cited from earlier work.

Consider four compounds from patent US9079896B2, “Urotensin II receptor antagonists” (Janssen Pharmaceutica NV, priority 2008, dated 2015).

The Ki is a dissociation constant, usually derived from enzyme kinetics or from competition with a known ligand. One may read the IC50 as the concentration that gives 50% inhibition. `CCN1CCN(c2cccc3c2[C@H]2CCC[C@H](c4ccc(OC)c(OC)c4)N2C3=O)CC1` [Compound 1, (R,R)-4-(3,4-Dimethoxy-phenyl)-10-(4-ethyl-piperazin-1-yl)-1,3,4,10b-tetrahydro-2H-pyrido[2,1-a]isoindol-6-one]: the Ki in test [1] was determined as 6 nM; in test [2], 64 nM. For the same compound, the IC50 in test [3] was 0.34 µM.
Consider `CCN1CCN(c2cccc3c2[C@H]2CCCC[C@H](c4ccc(OC)c(OC)c4)N2C3=O)CC1` [Compound 2, (R,R)-7-(3,4-Dimethoxy-phenyl)-1-(4-ethyl-piperazin-1-yl)-7,8,9,10,11,11a-hexahydro-azepino[2,1-a]isoindol-5-one], for which, in test [1], the Ki came to 34 nM.
As to (Ac)-CFWK(2-NaI)C—NH2, the Ki in test [4] was 0.12 ± 0.05 nM. Also, in test [5], the EC50 was 0.54 ± 0.2 nM.
On to “AGTAD-cyclo(CFWKYC)-V [Goby U-II, urotensin-II isolated from the urophysis of the goby fish, a 12-mer]”, for which, in test [6], the EC50 was less than 1 nM.
